Laboratory results from publication PMC8924238, “Mapping the sequence specificity of heterotypic amyloid interactions enables the identification of aggregation modifiers” (Nature Communications, 2022).
Entries after “also recorded” stand apart in the source; their conditions may differ. Residues, ends and D or L forms follow the SMILES beside them.

Legend:
[1] = tested on: HEK293 Tau^RD-P301S-CFP/YFP expressing biosensor cells; assay: Seeding inhibition in FRET tau biosensor cells, AD brain extracts; format: cell-based, human; conditions: CAP1 500 nM pre-treatment, extracts diluted 500x, three patients in duplicates, n = 6
Description: Ethical approval to access and work on the human tissue samples was given by the UZ Leuven ethical committee (Leuven/Belgium; File-No. S63759). An informed consent for autopsy and scientific use of autopsy tissue with clinical information was granted from all subjects involved. Following approval, brain tissue from autopsy cases was received from UZ/KU Leuven Biobank. Sarkosyl-insoluble material was extracted from cortex tissue of three individual patients with Alzheimer’s disease (designated here as A1–A3, Supplementary Table 3), as shown previously. Briefly, the tissue was homogenised with a FastPrep (MP Biomedicals) in 10 volumes (w/v) cold buffer consisting of 10 mM Tris-HCl pH 7.4, 0.8 M NaCl, 1 mM EGTA and 10% sucrose, followed by centrifugation at 20,000 × g for 20 min at 4 °C. Universal Nuclease (Pierce) was added to the supernatant, followed by a 30 min incubation at room temperature. The sample was then brought to 1% Sarkosyl (Sigma) and incubated for 1 h at room temperature while shaking (400 rpm), followed by centrifugation at 350,000 × g for 1 h at 4 °C. The pellet was washed once, resuspended in 50 mM Tris-HCl pH 7.4 (175 mg of starting material per 100 µl) and stored at −80 °C. […]

[2] = biological target: T1, recombinant full-length tau (tau^2N4R) (Homo sapiens, UniProt P10636); assay: Th-T kinetics of heparin-induced aggregation of recombinant full-length tau; format: biochemical; conditions: Fig. 8d
T1 construct: Recombinant full-length tau (tau^2N4R) was produced following previous established protocols; made in house
Experimental: Recombinant full-length tau (tau^2N4R) was produced following previous established protocols. Lyophilised protein aliquots were freshly dissolved in 10 mM HEPES pH 7.4 supplemented with 100 mM NaCl at a final concentration of 10 μM. After filtration, using […] PVDF filters, the protein solution was spiked with 5 μ μM of heparin (Sigma) and aggregation was monitored by adding 25 μM of Th-T in half-area black 96-well microplates (Corning, USA). Fluorescence was measured in triplicates, using a FluoStar Omega plate reader (BMG Labtech, Germany) at 37 °C, equipped with an excitation filter at 440 nm and emission filter at 490 nm. To generate seeds, endpoint amyloid fibrils were sonicated for 15 min (30 s on, 30 s off) at 10 °C, using a Bioruptor Pico sonication device (Diagenode).

[3] = biological target: T2, VQIVYK (PHF6) APR from tau (Homo sapiens, UniProt P10636); assay: Th-T aggregation kinetics of VQIVYK with sub-stoichiometric variant peptides (1:5) or CAP1; format: biochemical; conditions: Fig. 8c
T2 construct: The VQIVYK (PHF6) stretch, located in the C-terminal repeat domain of tau; made in house; host or cells: chemical solid phase peptide synthesis (no expression host)
Description: To experimentally investigate these calculations, we synthesised a library of 90 peptides corresponding to 78% of all single amino acid substitutions of the VQIVYK APR. We excluded introduction of cysteines to avoid further complexity introduced by the formation of intermolecular disulphides and also avoided substitutions of the Tyr residue at position five, since it enables fast and accurate readout of peptide concentration. First, peptide:APR mixtures were monitored using Th-T aggregation kinetic assays. For this screen, we used sub-stoichiometric mixtures of the variant peptides against PHF6 (1:5 analogy). The reasoning behind this was that it enabled tracing of subtle differences in aggregation kinetics, while at the same time reduced the propensity of most variants to participate in self-assembly. […] For the rest, following curve fitting of the monitored Th-T curves (Figs. 5a, b and S4), we calculated and summarised fold changes of aggregation half-times (t1/2) in a volcano plot, with the negative logarithm of the p-values represented on the vertical axis (Fig. 5c). […] It should be noted, however, that changes in fluorescence intensity can also potentially reflect morphological differentiation of the produced fibrils that can affect Th-T binding. […]

ATTO633-monomeric tau = biological target: T3, ATTO633-monomeric tau (Homo sapiens, UniProt P10636); assay: Microscale thermophoresis, monomeric rTau; format: binding; conditions: MST, 25 nM ATTO633-monomeric tau, CAP1 titrated from 50 μM; n = 3
T3 construct: heparin-induced aggregation of recombinant full-length tau (rTau); made in house
Experimental: MST measurements were performed to calculate binding affinities. Monomeric tau was labelled using amine reactive ATTO633 (ATTO633-NHS), following the manufacturer guidelines. Labelled tau aggregates were prepared using a 1:9 analogy of labelled to unlabelled monomeric tau, following the same aggregation protocol described for the unlabelled protein. 25 nM of ATTO633-monomeric tau or ATTO633-tau seeds were mixed against the CAP1 inhibitor, which was dissolved and titrated down starting from 50 μM, in tau buffer (HEPES 10 mM, 100 mM NaCl). Measurements were recorded on a Monolith NT automated instrument (NanoTemper Technologies GmbH, Germany) with a red-laser channel at 5% LED excitation power and medium MST power at ambient conditions. Affinity constants and experimental data fitting was performed using the NanoTemper analysis software (v2.2.4) and results were depicted as differentials between the bound and unbound state after baseline subtraction (ΔFnorm) over inhibitor concentration in the logarithmic scale.

T1 sequence (P10636 1-441 isoform P10636-8): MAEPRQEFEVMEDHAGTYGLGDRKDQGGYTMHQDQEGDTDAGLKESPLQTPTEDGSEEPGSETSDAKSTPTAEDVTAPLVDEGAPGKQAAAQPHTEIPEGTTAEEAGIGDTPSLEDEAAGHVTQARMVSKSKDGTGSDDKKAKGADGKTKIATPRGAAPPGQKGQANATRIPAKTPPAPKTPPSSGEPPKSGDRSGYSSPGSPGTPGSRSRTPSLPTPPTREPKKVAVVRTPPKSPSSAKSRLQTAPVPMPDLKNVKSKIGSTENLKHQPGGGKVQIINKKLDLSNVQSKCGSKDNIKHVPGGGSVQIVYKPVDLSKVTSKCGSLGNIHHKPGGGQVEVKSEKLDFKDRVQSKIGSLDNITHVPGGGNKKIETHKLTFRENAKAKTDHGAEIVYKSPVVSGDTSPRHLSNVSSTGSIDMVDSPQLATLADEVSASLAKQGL
T3 sequence (P10636 1-441 isoform P10636-8): as above

binding to monomeric rTau (ATTO633-monomeric tau): no significant binding
SMILES: CC[C@H](C)[C@H](NC(=O)[C@H](CCC(N)=O)NC(=O)[C@H](Cc1c[nH]c2ccccc12)NC(=O)[C@H](CCCNC(=N)N)NC(=O)[C@H](CO)NC(=O)CNC(=O)[C@H](CCCNC(=N)N)NC(=O)[C@H](CCCCN)NC(=O)[C@H](Cc1ccc(O)cc1)NC(=O)[C@@H](NC(=O)[C@@H](NC(=O)[C@H](CCC(N)=O)NC(=O)[C@H](Cc1c[nH]c2ccccc12)NC(=O)[C@@H](N)CCCNC(=N)N)[C@@H](C)CC)C(C)C)C(=O)N[C@H](C(=O)N[C@@H](Cc1ccc(O)cc1)C(=O)N[C@@H](CCCCN)C(=O)N[C@@H](CCCNC(=N)N)C(=O)O)C(C)C [CAP1] (H-RWQIVYKRGSRWQIVYKR-OH; N-terminus and C-terminus assumed)
seed propagation of AD patient brain extracts (fraction of cells containing tau inclusions) [1]: significantly reduces | inhibition of heparin-induced aggregation of rTau [2]: successfully inhibited; also recorded: inhibits | inhibition of self-assembly of the PHF6 hexapeptide [3]: successfully inhibited; also recorded: inhibits
